Data reported in patent US12590063B2, “Phenol derivative” (Sumitomo Pharma Co., Ltd., priority 2020, dated 2026).

Molecular target: T1, Human TRPV1 (Homo sapiens, UniProt Q8NER1)
T1 construct: the TRPV1 gene (GenBank NP_542435.2) had been inserted; expressed in transfected cells; host or cells: HEK293 cells (cat #CCL-82.2, ATCC), transient transfection with pcDNA3.1
Assay: Evaluation of agonistic properties using human TRPV1 transiently expressing cells
Type: cell-based
Conditions: not given
From the text: Test Example 1: Evaluation of Agonistic Properties Using Human TRPV1 Transiently Expressing Cells
(1) Generation of Human TRPV1 Transiently Expressing Cells
Human TRPV1 transiently expressing cells were generated and subjected to culture. Specifically, HEK293 cells (cat #CCL-82.2, ATCC) were used as host cells. Human TRPV1 and apoaequorin were transiently expressed by introducing the mammalian cell expression pcDNA3.1 vector (cat #v790-20, Invitrogen) into which the TRPV1 gene (GenBank NP_542435.2) had been inserted.
The Dulbecco's Modified Eagle's Medium (DMEM) medium (cat #11550-043, Thermo Fisher Scientific) containing 10% inactivated fetal bovine serum (cat #10270-106, Thermo Fisher Scientific) was used as the medium, and the culture was carried out in tissue culture dishes (cat #3020-100, Iwaki). During the culture, cells were collected every 2 to 3 days by treating with PBS containing 10% 2.5 g/1-trypsin/[…] solution, phenol red (cat #32777-44, Nacalai Tesque), and passage culture was carried out.
Three days after the passage, cells were collected with 10% trypsin-PBS treatment at a state of about 80% confluency, suspended in a DMEM medium containing 10% fetal bovine serum to 4000 cells/35 μl/well, and seeded into 384-well plates (cat #353962, FALCON).
The day after seeding, Viviren (cat #E6492, Promega) was added (15 μl/well) to a final concentration of 4.5 μM/HBSS (cat #14065-056, Thermo Fisher Scientific)/90 mM HEPES (cat #17514-15, Nacalai Tesque)/0.1% BSA (cat #01281-84, Nacalai Tesque), and after centrifugation, the samples were allowed to stand at room temperature for 2 hours under light-shielded conditions.
(2) Preparation of Test Compounds
For the test compounds, dimethyl sulfoxide solutions were produced at a concentration 1000 times the final concentration, and from these solutions, solutions at concentration 10 times the final concentration were prepared with Hanks/20 mmol/L HEPES/0.10% BSA (cat #01281-84, Nacalai Tesque).
(3) Evaluation of TRPV1-Agonistic Properties
FDSS7000 (Hamamatsu Photonics K.K.) was used for detection of TRPV1 agonist-stimulated luminescence signals. The test compounds were added to plates to which the cells and luminescent substrates had been added. The luminescence signals (center wavelength: 465 nm) after addition of the test compounds were measured, and the Rlu (Max−Min) was calculated.

T1 sequence (Q8NER1 whole entry): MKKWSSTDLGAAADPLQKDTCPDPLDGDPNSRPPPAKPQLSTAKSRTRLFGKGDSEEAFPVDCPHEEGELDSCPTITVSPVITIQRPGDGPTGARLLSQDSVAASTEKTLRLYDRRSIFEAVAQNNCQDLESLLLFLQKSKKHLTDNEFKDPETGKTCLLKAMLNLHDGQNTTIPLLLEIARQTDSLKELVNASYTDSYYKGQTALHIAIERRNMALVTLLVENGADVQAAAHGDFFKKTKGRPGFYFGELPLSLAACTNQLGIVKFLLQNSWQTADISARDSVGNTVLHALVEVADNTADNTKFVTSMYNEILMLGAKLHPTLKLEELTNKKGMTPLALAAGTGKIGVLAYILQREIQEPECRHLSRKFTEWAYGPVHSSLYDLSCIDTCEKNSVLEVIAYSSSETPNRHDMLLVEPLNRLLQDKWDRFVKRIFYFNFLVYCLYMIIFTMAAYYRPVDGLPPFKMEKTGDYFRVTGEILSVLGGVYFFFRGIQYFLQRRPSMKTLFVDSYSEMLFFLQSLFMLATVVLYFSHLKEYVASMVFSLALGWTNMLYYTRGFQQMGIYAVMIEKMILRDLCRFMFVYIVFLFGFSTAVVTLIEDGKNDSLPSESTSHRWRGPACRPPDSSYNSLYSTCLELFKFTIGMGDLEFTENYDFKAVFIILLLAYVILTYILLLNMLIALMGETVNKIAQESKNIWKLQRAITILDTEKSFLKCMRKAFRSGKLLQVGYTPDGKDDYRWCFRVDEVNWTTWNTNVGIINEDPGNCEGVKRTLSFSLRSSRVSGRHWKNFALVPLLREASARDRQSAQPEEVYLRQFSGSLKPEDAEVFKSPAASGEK

| SMILES | EC50 [nM] |
| --- | --- |
| COc1cc(CC(=O)Nc2cccc([C@H]3CC[C@@H](OC(=O)Cc4ccccc4)CC3)c2)ccc1O [Example 35, cis-4-{3-[2-(4-hydroxy-3-methoxyphenyl)acetamido]phenyl}cyclohexyl phenylacetate] | 8.2 |
| COc1cc(CC(=O)Nc2cccc([C@H]3CC[C@H](OC(=O)Cc4ccccc4)CC3)c2)ccc1O [Example 36, trans-4-{3-[2-(4-hydroxy-3-methoxyphenyl)acetamido]phenyl}cyclohexyl phenylacetate] | 57.5 |

Same assay, conditions: HEK293 cells transiently expressing human TRPV1 and apoaequorin; luminescence signal Rlu (Max-Min); read-out: TRPV1 EC50

| SMILES | EC50 [nM] |
| --- | --- |
| COc1cc(CC(=O)Nc2cccc([C@H]3CC[C@H](OC(=O)C4CCCCC4)CC3)c2)ccc1O [Example 37, trans-4-{3-[2-(4-hydroxy-3-methoxyphenyl)acetamido]phenyl}cyclohexyl cyclohexanecarboxylate] | 73.1 |
| COc1cc(CC(=O)Nc2cccc([C@H]3CC[C@H](OC(C)=O)CC3)c2)ccc1O [Example 38, trans-4-{3-[2-(4-hydroxy-3-methoxyphenyl)acetamido]phenyl}cyclohexyl acetate] | 18.9 |
| COc1cc(CC(=O)Nc2cccc([C@H]3CC[C@@H](OC(C)=O)CC3)c2)ccc1OC(C)=O [Example 39, 4-(2-{3-[(cis)-4-(acetyloxy)cyclohexyl]anilino}-2-oxoethyl)-2-methoxyphenyl acetate] | 282 |
| COc1cc(CC(=O)Nc2cccc([C@H]3CC[C@H](OC(C)=O)CC3)c2)ccc1OC(C)=O [Example 40, 4-(2-{3-[(trans)-4-(acetyloxy)cyclohexyl]anilino}-2-oxoethyl)-2-methoxyphenyl acetate] | 480 |
| COc1cc(CC(=O)Nc2ccnc([C@H]3CC[C@@H](OC(C)=O)CC3)c2)ccc1O [Example 41, cis-4-{4-[2-(4-hydroxy-3-methoxyphenyl)acetamido]pyridin-2-yl}cyclohexyl acetate] | 95.1 |
| COc1cc(CNC(=O)c2cccc([C@H]3CC[C@@H](OC(C)=O)CC3)c2)ccc1O [Example 42, cis-4-(3-{[(4-hydroxy-3-methoxyphenyl)methyl]carbamoyl}phenyl)cyclohexyl acetate] | 83.1 |
| COc1cc(CC(=O)Nc2ccnc([C@H]3CC[C@@H](OC(C)=O)CC3)c2)ccc1OC(C)=O [Example 43, 4-[2-({2-[(cis)-4-(acetyloxy)cyclohexyl]pyridin-4-yl}amino)-2-oxoethyl]-2-methoxyphenyl acetate] | 3080 |
| COc1cc(CC(=O)Nc2cccc([C@H]3CC[C@H](OC(=O)C(C)C)CC3)c2)ccc1O [Example 48, trans-4-{3-[2-(4-hydroxy-3-methoxyphenyl)acetamido]phenyl}cyclohexyl 2-methylpropanoate] | 32.1 |
| COc1cc(CC(=O)Nc2cccc([C@H]3CC[C@@H](O)CC3)c2)ccc1O [Reference Example 9, N-{3-[(cis)-4-Hydroxycyclohexyl]phenyl}-2-(4-hydroxy-3-methoxyphenyl)acetamide] | 2690 |
| COc1cc(CC(=O)Nc2cccc([C@H]3CC[C@H](O)CC3)c2)ccc1O [Reference Example 10, N-{3-[(trans)-4-Hydroxycyclohexyl]phenyl}-2-(4-hydroxy-3-methoxyphenyl)acetamide] | 8060 |
| COc1cc(CNC(=O)c2cccc(-c3cccc(O)c3)c2)ccc1O [Reference Example 12, 3′-Hydroxy-N-[(4-hydroxy-3-methoxyphenyl)methyl][1,1′-biphenyl]-3-carboxamide] | 3290 |
| COc1cc(CNC(=O)c2ccnc(-c3cccc(O)c3)c2)ccc1O [Reference Example 18] | 6110 |
| COc1cc(CC(=O)Nc2cccc(-c3ccc(O)cc3)c2)ccc1O [compound 13] | 606 |
| COc1cc(CC(=O)Nc2cccc(-c3cccc(O)c3)c2)ccc1O [compound 14] | 1650 |
| COc1cc(CC(=O)Nc2ccnc(-c3cccc(O)c3)c2)ccc1O [compound 15] | 4560 |
| COc1cc(CC(=O)Nc2cccc(-c3cccc(O)c3)n2)ccc1O [compound 16] | 1010 |
| COc1cc(CC(=O)Nc2ccc(F)c(-c3cccc(O)c3)c2)ccc1O [compound 17] | 7020 |
